Assay results as given in ChEMBL document CHEMBL1145481, “Molecular epidemiology of telithromycin-resistant pneumococci in Finland” (2007).

Assays:
Streptococcus pneumoniae [1] = experiment: Antimicrobial activity against telithromycin-resistant Streptococcus pneumoniae 1017 isolate with erm(B) resistance gene from patient ear by disk diffusion test; type: functional
Streptococcus pneumoniae [2] = experiment: Antimicrobial activity against telithromycin-resistant Streptococcus pneumoniae 833 isolate with erm(B) resistance gene from patient sinuitis by disk diffusion test; type: functional
Streptococcus pneumoniae [3] = experiment: Antimicrobial activity against telithromycin-resistant Streptococcus pneumoniae 837 isolate with mutation in erm(B), mef(E), L4 Ser20Asn mutant gene from patient sputum by disk diffusion test; type: functional
Streptococcus pneumoniae [4] = experiment: Antimicrobial activity against telithromycin-resistant Streptococcus pneumoniae 918 isolate with erm(B) resistance gene from patient eye by disk diffusion test; type: functional
Streptococcus pneumoniae [5] = experiment: Antimicrobial activity against telithromycin-resistant Streptococcus pneumoniae 326 isolate with erm(B) resistance gene from patient blood by disk diffusion test; type: functional
Streptococcus pneumoniae [6] = experiment: Antimicrobial activity against telithromycin-resistant Streptococcus pneumoniae 1041 isolate with erm(B) resistance gene from patient blood by disk diffusion test; type: functional
Streptococcus pneumoniae [7] = experiment: Antimicrobial activity against telithromycin-resistant Streptococcus pneumoniae 426 isolate with erm(B) resistance gene from patient sinuitis by disk diffusion test; type: functional
Streptococcus pneumoniae [8] = experiment: Antimicrobial activity against telithromycin-resistant Streptococcus pneumoniae 811 isolate with erm(B) resistance gene from patient blood by disk diffusion test; type: functional
Streptococcus pneumoniae [9] = experiment: Antimicrobial activity against telithromycin-resistant Streptococcus pneumoniae 683 isolate with erm(B) resistance gene from patient sputum by disk diffusion test; type: functional
Streptococcus pneumoniae [10] = experiment: Antimicrobial activity against telithromycin-resistant Streptococcus pneumoniae 1022 isolate with erm(B) resistance gene from patient ear by disk diffusion test; type: functional
Streptococcus pneumoniae [11] = experiment: Antimicrobial activity against telithromycin-resistant Streptococcus pneumoniae 552 isolate with erm(B) resistance gene from patient sinuitis by disk diffusion test; type: functional
Streptococcus pneumoniae [12] = experiment: Antimicrobial activity against telithromycin-resistant Streptococcus pneumoniae 838 isolate with erm(B) and mef(E) resistance gene from patient ear by disk diffusion test; type: functional
Streptococcus pneumoniae [13] = experiment: Antimicrobial activity against telithromycin-resistant Streptococcus pneumoniae 759 isolate with erm(B) resistance gene from patient ear by disk diffusion test; type: functional
Streptococcus pneumoniae [14] = experiment: Antimicrobial activity against telithromycin-resistant Streptococcus pneumoniae 460 isolate with erm(B) resistance gene from patient ear by disk diffusion test; type: functional
Streptococcus pneumoniae [15] = experiment: Antimicrobial activity against telithromycin-resistant Streptococcus pneumoniae 443 isolate with erm(B) resistance gene from patient ear by disk diffusion test; type: functional
Streptococcus pneumoniae [16] = experiment: Antimicrobial activity against telithromycin-resistant Streptococcus pneumoniae 415 isolate with erm(B) resistance gene from patient blood by disk diffusion test; type: functional
Streptococcus pneumoniae [17] = experiment: Antimicrobial activity against telithromycin-resistant Streptococcus pneumoniae 376 isolate with erm(B) resistance gene from patient ear by disk diffusion test; type: functional
Streptococcus pneumoniae [18] = experiment: Antimicrobial activity against telithromycin-resistant Streptococcus pneumoniae 1051 isolate with erm(B) resistance gene from patient ear by disk diffusion test; type: functional
Streptococcus pneumoniae [19] = experiment: Antimicrobial activity against telithromycin-resistant Streptococcus pneumoniae 115 isolate with erm(B) resistance gene from patient ear by disk diffusion test; type: functional
Streptococcus pneumoniae [20] = experiment: Antimicrobial activity against telithromycin-resistant Streptococcus pneumoniae 859 isolate with erm(B) resistance gene from patient bronchoalveolar lavage by disk diffusion test; type: functional, Lung
Streptococcus pneumoniae [21] = experiment: Antimicrobial activity against telithromycin-resistant Streptococcus pneumoniae 1016 isolate with erm(B) resistance gene from patient blood by disk diffusion test; type: functional
Streptococcus pneumoniae [22] = experiment: Antimicrobial activity against telithromycin-resistant Streptococcus pneumoniae 547 isolate with erm(B) resistance gene from patient sinuitis by disk diffusion test; type: functional
Streptococcus pneumoniae [23] = experiment: Antimicrobial activity against telithromycin-resistant Streptococcus pneumoniae 981 isolate with erm(B) resistance gene from patient blood by disk diffusion test; type: functional
Streptococcus pneumoniae [24] = experiment: Antimicrobial activity against telithromycin-resistant Streptococcus pneumoniae 897 isolate with erm(B) resistance gene from patient bronchoalveolar lavage by disk diffusion test; type: functional, Lung
Streptococcus pneumoniae [25] = experiment: Antimicrobial activity against telithromycin-resistant Streptococcus pneumoniae 427 isolate with erm(B) resistance gene from patient sinuitis by disk diffusion test; type: functional
Streptococcus pneumoniae [26] = experiment: Antimicrobial activity against telithromycin-resistant Streptococcus pneumoniae 237 isolate with erm(B) resistance gene from patient ear by disk diffusion test; type: functional

SMILES	Activity (Streptococcus pneumoniae [1]) [µg/mL]	Activity (Streptococcus pneumoniae [2]) [µg/mL]	Activity (Streptococcus pneumoniae [3]) [µg/mL]	Activity (Streptococcus pneumoniae [4]) [µg/mL]	Activity (Streptococcus pneumoniae [5]) [µg/mL]	Activity (Streptococcus pneumoniae [6]) [µg/mL]	Activity (Streptococcus pneumoniae [7]) [µg/mL]	Activity (Streptococcus pneumoniae [8]) [µg/mL]	Activity (Streptococcus pneumoniae [9]) [µg/mL]	Activity (Streptococcus pneumoniae [10]) [µg/mL]	Activity (Streptococcus pneumoniae [11]) [µg/mL]	Activity (Streptococcus pneumoniae [12]) [µg/mL]	Activity (Streptococcus pneumoniae [13]) [µg/mL]	Activity (Streptococcus pneumoniae [14]) [µg/mL]	Activity (Streptococcus pneumoniae [15]) [µg/mL]	Activity (Streptococcus pneumoniae [16]) [µg/mL]	Activity (Streptococcus pneumoniae [17]) [µg/mL]	Activity (Streptococcus pneumoniae [18]) [µg/mL]	Activity (Streptococcus pneumoniae [19]) [µg/mL]	Activity (Streptococcus pneumoniae [20]) [µg/mL]	further results
CC[C@H]1OC(=O)[C@H](C)[C@@H](O[C@H]2C[C@@](C)(OC)[C@@H](O)[C@H](C)O2)[C@H](C)[C@@H](O[C@@H]2O[C@H](C)C[C@H](N(C)C)[C@H]2O)[C@](C)(O)C[C@@H](C)C(=O)[C@H](C)[C@@H](O)[C@]1(C)O [ERYTHROMYCIN]	129	129	129	129	129	129	129	129	129	129	129	129	129	129	129	129	129	129	129	129	Activity (Streptococcus pneumoniae [21]): 129 µg/mL; Activity (Streptococcus pneumoniae [22]): 129 µg/mL; Activity (Streptococcus pneumoniae [23]): 129 µg/mL; Activity (Streptococcus pneumoniae [24]): 129 µg/mL; Activity (Streptococcus pneumoniae [25]): 129 µg/mL; Activity (Streptococcus pneumoniae [26]): 129 µg/mL
CN(C)[C@@H]1C(O)=C(C(N)=O)C(=O)[C@@]2(O)C(O)=C3C(=O)c4c(O)cccc4[C@@](C)(O)[C@H]3C[C@@H]12 [TETRACYCLINE]	32	32	64	32	32	32	32	16	32	32	32	32	32	32	32	32	0.5	32	64	32	Activity (Streptococcus pneumoniae [21]): 32 µg/mL; Activity (Streptococcus pneumoniae [22]): 32 µg/mL; Activity (Streptococcus pneumoniae [23]): 32 µg/mL; Activity (Streptococcus pneumoniae [24]): 64 µg/mL; Activity (Streptococcus pneumoniae [25]): 32 µg/mL; Activity (Streptococcus pneumoniae [26]): 32 µg/mL
